{
  "source": "patent US20180042827A1",
  "about": "“METHOD OF PROTECTING SKIN FROM ULTRAVIOLET RADIATION” (FIC BIOTECH INC., priority 2016, published 2018)",
  "format_in_all_cases": "cell-based, human",
  "key": {"[1]": {"system": "HFF-1 cells (G6PD deficient skin fibroblast)", "assay": "Intracellular ROS detection (DCF-DA fluorescence) after UVA irradiation", "settings": "200 μM added prior to UVA irradiation (25, 50 and 100 KJ/cm^2)", "description": "(§1) When cells were seeded in culture dish for overnight incubation, 200 μM of compound (I-1) was added to the cells for 2 hours before UVA irradiation.\n(§2) Reactive oxygen species (ROS) fluorescent dye: when 10 μM of 2′,7′-dichlorodihydrofluorescindiacetate (DCF-DA) enters the cells, DCF trapped is oxidized by the ROS and emits fluorescent light (excitation light: 488 nm, scattered light: 525 nm).\n(§3) HFF-3 and HFF-1 cells were cultivated and irradiated with various dosages of UVA (25, 50 and 100 KJ/cm^2). The culture medium was then replaced with new medium and treated with 10 μM of DCF-DA probe for 30 minutes at 37° C. in the dark. Cells were detached by trypsinization, collected by centrifugation and resuspended in PBS. The intracellular ROS, as reflected by the DCF green fluorescence, were then observed using laser scanning confocal microscope."}, "[2]": {"system": "HFF-3 cells", "assay": "Intracellular ROS detection (DCF-DA fluorescence) after UVA irradiation", "settings": "200 μM added prior to UVA irradiation (25, 50 and 100 KJ/cm^2)", "description": "as §1, §2, §3"}, "[3]": {"system": "HFF1 cells (G6PD deficient skin fibroblast)", "assay": "Intracellular lipid peroxidation (C11-BODIPY 581/591 fluorescence) after UVA irradiation", "settings": "pretreated, 50 KJ/m^2 UVA, versus only UVA-treated cells", "description": "as §1\n(§4) When the ROS attacks the C11-BODIPY^581/591 on the cell membrane, it will emit fluorescent light (excitation light: 488 nm, scattered light: 510-665 nm).\n(§5) After treating 10 μM C11-BODIPY^581/591 for 30 minutes at 37° C., the cells were washed with HEPES buffer (4-(2-hydroxyerhyl)-piperazine-1-erhanesulfonic acid, HEPES) and were observed by using the laser scanning confocal microscope."}, "[4]": {"system": "HFF3 cells", "assay": "Intracellular lipid peroxidation (C11-BODIPY 581/591 fluorescence) after UVA irradiation", "settings": "pretreated, 50 KJ/m^2 UVA, versus only UVA-treated cells", "description": "as §1, §4, §5"}, "[5]": {"system": "HFF-1 cells (G6PD deficient skin fibroblast)", "assay": "Intracellular glutathione (GSH) depletion (CMF-DA fluorescence) after UVA irradiation", "settings": "200 μM added prior to UVA irradiation (25, 50 and 100 KJ/cm^2)", "description": "as §1\n(§6) Glutathione (GSH) fluorescent dye: 10 μM of 5-chloromethyl fluorescein diacetate (CMF-DA). When CMF-DA enters the cells, the trapped CMF reacts with the GSH to form a fluorescent compound which to emit fluorescent light (excitation light: 492 nm, scattered light: 517 nm).\nas §3, with “[…] CMF-DA” for “10 μM of DCF-DA”, “GSH contents,” for “ROS,”, “the” for “the DCF”, “fluorescence intensity of CMF-GSH,” for “fluorescence,”"}, "[6]": {"system": "HFF-3 cells", "assay": "Intracellular glutathione (GSH) depletion (CMF-DA fluorescence) after UVA irradiation", "settings": "200 μM added prior to UVA irradiation (25, 50 and 100 KJ/cm^2)", "description": "as §1, §6\nas §3, with “[…] CMF-DA” for “10 μM of DCF-DA”, “GSH contents,” for “ROS,”, “the” for “the DCF”, “fluorescence intensity of CMF-GSH,” for “fluorescence,”"}, "[7]": {"system": "HFF-1 cells (G6PD deficient skin fibroblast)", "assay": "Calcium detection of cytoplasm and mitochondria (Fluo-4 / Rhod-2) after UVA irradiation", "settings": "200 μM added prior to UVA (50 KJ/cm^2)", "description": "as §1\n(§7) Calcium mobilization detection dye: 1.5 μM of RHOD-2/AM (rhod-2) is a cell-permeable fluorescent probe for measuring calcium (Ca^2+) in mitochondria (excitation light: 543 nm, scattered light: 581 nm), and 2 μM of FLUO-4/AM (fluo-4) is a cell-permeable fluorescent probe for measuring calcium (Ca^2+) in cytoplasm (excitation light: 488 nm, scattered light: 516 nm).\n(§8) HFF-3 and HFF-1 cells were cultivated and irradiated with UVA (50KJ/cm^2). The culture medium was then replaced with new medium and treated with 2 μM Flou-4 and 1.5 μM of Rhod-2 (for the detection of mitochondrial calcium) for 30 minutes at 37° C. in the dark. Rhod-2 is a cationic rhodamine-based indicator probe and it can accumulate preferentially in potential-driven uptake in mitochondria. The resting mitochondrial calcium concentration is generally in the range of 100-150 nM. At this level of calcium, the brownish red fluorescence of Rhod-2 is minimal. However, when large excess of calcium ions are uptaken by the mitochondria, concentration-dependent increases in the intensities of Rhod-2 fluorescence will occur. The phenomenon is a testimony of mitochondrial calcium overload."}, "[8]": {"system": "HFF-3 cells", "assay": "Calcium detection of cytoplasm and mitochondria (Fluo-4 / Rhod-2) after UVA irradiation", "settings": "200 μM added prior to UVA (50 KJ/cm^2)", "description": "as §1, §7, §8"}, "[9]": {"system": "HFF-1 cells (G6PD deficient skin fibroblast)", "assay": "TUNEL analysis of apoptotic cell death after UVA irradiation", "settings": "200 μM added prior to UVA (50 KJ/cm^2), UVA alone ca 80%", "description": "as §1\n(§9) Apoptotic cell death was assayed by using an Apo-BrdU in situ DNA fragmentation assay kit. This kit measures the fragmented DNA of apoptotic cells by catalytically incorporating fluorescein-12-dUTP at 3′-OH DNA ends using the terminal deoxynucleotidyl transferase enzyme. The fluorescein-12-dUTP-labeled DNA can then be visualized by confocal scanning microscope and quantified by using software."}, "[10]": {"system": "HFF-3 cells", "assay": "TUNEL analysis of apoptotic cell death after UVA irradiation", "settings": "200 μM added prior to UVA (50 KJ/cm^2), UVA alone ca 40%", "description": "as §1, §9"}},
  "note": "Entries after “also recorded” stand apart in the source; their conditions may differ.",
  "data": [
    {"smiles": "COC(=O)c1cc(O)c(O)c(O)c1", "note": "[compound (I-1), methyl gallate]", "values": [
      {"measurement": "production of intracellular ROS (DCF fluorescence)", "setting": "[1]", "value": "almost completely suppressed; also recorded: nearly complete suppression of ROS production"},
      {"measurement": "production of intracellular ROS (DCF fluorescence)", "setting": "[2]", "value": "almost completely suppressed"},
      {"measurement": "intracellular lipid peroxidation (green fluorescent intensity of C11-BODIPY 581/591)", "setting": "[3]", "value": "weaker than that of the only UVA-treated cells; also recorded: significant decline of green fluorescence"},
      {"measurement": "intracellular lipid peroxidation (green fluorescent intensity of C11-BODIPY 581/591)", "setting": "[4]", "value": "weaker than that of the only UVA-treated cells; also recorded: significant decline of green fluorescence"},
      {"measurement": "intracellular GSH depletion (green fluorescence of CMF-GSH)", "setting": "[5]", "value": "nearly complete protection of GSH depletion; also recorded: nearly complete recovery of green fluorescence"},
      {"measurement": "intracellular GSH depletion (green fluorescence of CMF-GSH)", "setting": "[6]", "value": "nearly complete protection of GSH depletion; also recorded: nearly complete recovery of green fluorescence"},
      {"measurement": "mitochondrial calcium overload (brownish red fluorescence of Rhod-2)", "setting": "[7]", "value": "drastic decrease in brownish red fluorescence intensity; also recorded: could effectively be suppressed"},
      {"measurement": "mitochondrial calcium overload (brownish red fluorescence of Rhod-2)", "setting": "[8]", "value": "can prevent calcium overload in mitochondria; also recorded: could effectively be suppressed"},
      {"measurement": "TUNEL-positive cell population", "setting": "[9]", "value": 18, "unit": "%"},
      {"measurement": "TUNEL-positive cell population", "setting": "[10]", "value": 8, "unit": "%"}
    ]}
  ]
}
